According to patent US12162872B2, “Cycloalkylurea derivative” (Sumitomo Pharma Co., Ltd., priority 2019, dated 2024):

Target: T1, Human orexin receptor type 2 (Homo sapiens, UniProt O43614)
T1 construct: expressed in transfected cells; host or cells: CHO cells (transient expression)
T1 sequence (O43614 1-444): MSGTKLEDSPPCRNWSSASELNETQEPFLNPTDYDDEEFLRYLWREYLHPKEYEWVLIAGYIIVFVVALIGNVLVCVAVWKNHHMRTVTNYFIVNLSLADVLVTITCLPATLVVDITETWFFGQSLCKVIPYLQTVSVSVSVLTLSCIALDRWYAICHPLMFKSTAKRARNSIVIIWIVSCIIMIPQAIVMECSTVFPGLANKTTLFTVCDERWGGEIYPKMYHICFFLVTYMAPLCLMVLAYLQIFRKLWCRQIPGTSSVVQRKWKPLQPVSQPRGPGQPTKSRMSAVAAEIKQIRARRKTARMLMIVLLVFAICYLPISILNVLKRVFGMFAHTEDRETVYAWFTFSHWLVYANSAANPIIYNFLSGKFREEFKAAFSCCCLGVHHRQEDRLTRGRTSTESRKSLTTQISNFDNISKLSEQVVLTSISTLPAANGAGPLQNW
Test: Test 2: Evaluation of agonist activity for orexin receptor type 2 (aequorin luminescence, intracellular calcium mobilization in CHO cells)
Assay type: cell-based
Settings: relative percentage of luminescence for the luminescence (100%) of Orexin A (100 pM); CHO cells transiently expressing human orexin receptor type 2 and apoaequorin; Orexin A Lot. 671009
Description: Test 2: Evaluation of Agonist Activity for Orexin Receptor Type 2
Human orexin receptor type 2 and apoaequorin were transiently expressed in CHO cells, and the agonist activity was evaluated based on intracellular calcium mobilization with ligand stimulation. The CHO cells transiently-expressed human orexin receptor type 2 and apoaequorin were seeded on a 384-well plate by 2,000 cells/well, and then incubated for 16-22 hours. After the plate was returned to room temperature, Coelenterazine hcp (final concentration: 1 μM) was added to the plate, and the plate was allowed to stand at room temperature for 2 hours. And then, Orexin A (PEPTIDE INSTITUTE, INC., Lot. 671009) or each test compound was added to the plate, and the luminescence of the cells was measured with FDSS7000 (Hamamatsu Photonics K.K.), wherein Orexin A and each test compound were dissolved in DMSO (final concentration: 0.1%), and diluted with a buffer (Hanks, 20 mM HEPES, 0.1% BSA). The agonist activity of each test compound for orexin receptor type 2 was calculated as relative percentage of luminescence for the luminescence (100%) of Orexin A (100 pM).

Row | agonist activity (%) | SMILES
1 | 378% | CC(C)(C)CN1CC[C@H](O[C@H]2CCCC(F)(F)[C@@H]2NC(=O)N2CCC(C)(c3noc(C4CC4)n3)CC2)C1 [Example 119, 4-(5-cyclopropyl-1,2,4-oxadiazol-3-yl)-N-[(1R,6S)-6-{[(3S)-1-(2,2-dimethylpropyl)pyrrolidin-3-yl]oxy}-2,2-difluorocyclohexyl]-4-methylpiperidine-1-carboxamide]
2 | 387% | CC(C)(C)CN1CC[C@H](O[C@H]2CCCC(F)(F)[C@@H]2NC(=O)N2CCC(C)(c3noc([C@@H]4C[C@@H]4F)n3)CC2)C1 [Example 120, N-[(1R,6S)-6-{[(3S)-1-(2,2-dimethylpropyl)pyrrolidin-3-yl]oxy}-2,2-difluorocyclohexyl]-4-{5-[(1S,2S)-2-fluorocyclopropyl]-1,2,4-oxadiazol-3-yl}-4-methylpiperidine-1-carboxamide]
3 | 379% | CC1(CN2CC[C@H](O[C@H]3CCCC(F)(F)[C@@H]3NC(=O)N3CCC(C)(c4noc([C@@H]5C[C@@H]5F)n4)CC3)C2)CC1 [Example 121, N-[(1R,6S)-2,2-difluoro-6-({(3S)-1-[(1-methylcyclopropyl)methyl]pyrrolidin-3-yl}oxy)cyclohexyl]-4-{5-[(1S,2S)-2-fluorocyclopropyl]-1,2,4-oxadiazol-3-yl}-4-methylpiperidine-1-carboxamide]
4 | 369% | CC1(c2noc(C3CC3)n2)CCN(C(=O)N[C@@H]2[C@@H](O[C@H]3CCN(CC4CC4)C3)CCCC2(F)F)CC1 [Example 122, N-[(1R,6S)-6-{[(3S)-1-(cyclopropylmethyl)pyrrolidin-3-yl]oxy}-2,2-difluorocyclohexyl]-4-(5-cyclopropyl-1,2,4-oxadiazol-3-yl)-4-methylpiperidine-1-carboxamide]
5 | 366% | CC(C)N1CCC(N(C)[C@H]2CCCC(F)(F)[C@@H]2NC(=O)N2CCC(C)(c3noc([C@@H]4C[C@@H]4F)n3)CC2)CC1 [Example 123, N-[(1R,6S)-2,2-difluoro-6-{methyl[1-(propan-2-yl)piperidin-4-yl]amino}cyclohexyl]-4-{5-[(1S,2S)-2-fluorocyclopropyl]-1,2,4-oxadiazol-3-yl}-4-methylpiperidine-1-carboxamide]
6 | 391% | CC1(c2noc([C@@H]3C[C@@H]3F)n2)CCN(C(=O)N[C@@H]2[C@@H](N3CCC(N4CCCC4)CC3)CCCC2(F)F)CC1 [Example 124, N-{(1R,6S)-2,2-difluoro-6-[4-(pyrrolidin-1-yl)piperidin-1-yl]cyclohexyl}-4-{5-[(1S,2S)-2-fluorocyclopropyl]-1,2,4-oxadiazol-3-yl}-4-methylpiperidine-1-carboxamide]
7 | 402% | CC(C)N1CC2CN([C@H]3CCCC(F)(F)[C@@H]3NC(=O)N3CCC(C)(c4noc([C@@H]5C[C@@H]5F)n4)CC3)CC2C1 (stereo partly drawn) [Example 125, N-{(1R,6S)-2,2-difluoro-6-[5-(propan-2-yl)hexahydropyrrolo[3,4-c]pyrrol-2(1H)-yl]cyclohexyl}-4-{5-[(1S,2S)-2-fluorocyclopropyl]-1,2,4-oxadiazol-3-yl}-4-methylpiperidine-1-carboxamide]
8 | 394% | CC1(CN2CC[C@H](O[C@H]3CCCC(F)(F)[C@@H]3NC(=O)N3CCC(C)(c4noc(C5CC5)n4)CC3)C2)CC1 [Example 126, 4-(5-cyclopropyl-1,2,4-oxadiazol-3-yl)-N-[(1R,6S)-2,2-difluoro-6-({(3S)-1-[(1-methylcyclopropyl)methyl]pyrrolidin-3-yl}oxy)cyclohexyl]-4-methylpiperidine-1-carboxamide]
9 | 367% | CC(C)N1CCC2(CCN([C@H]3CCCC(F)(F)[C@@H]3NC(=O)N3CCC(C)(c4noc([C@@H]5C[C@@H]5F)n4)CC3)CC2)C1 [Example 127, N-{(1R,6S)-2,2-difluoro-6-[2-(propan-2-yl)-2,8-diazaspiro[4.5]decan-8-yl]cyclohexyl}-4-{5-[(1S,2S)-2-fluorocyclopropyl]-1,2,4-oxadiazol-3-yl}-4-methylpiperidine-1-carboxamide]
10 | 402% | CC(C)CN(C)[C@H]1CCN([C@H]2CCCC(F)(F)[C@@H]2NC(=O)N2CCC(C)(c3noc([C@@H]4C[C@@H]4F)n3)CC2)C1 [Example 128, N-[(1R,6S)-2,2-difluoro-6-{(3S)-3-[methyl(2-methylpropyl)amino]pyrrolidin-1-yl}cyclohexyl]-4-{5-[(1S,2S)-2-fluorocyclopropyl]-1,2,4-oxadiazol-3-yl}-4-methylpiperidine-1-carboxamide]
11 | 435% | CCN(CC)C1CCN([C@H]2CCCC(F)(F)[C@@H]2NC(=O)N2CCC(C)(c3noc([C@@H]4C[C@@H]4F)n3)CC2)CC1 [Example 129, N-{(1R,6S)-6-[4-(diethylamino)piperidin-1-yl]-2,2-difluorocyclohexyl}-4-{5-[(1S,2S)-2-fluorocyclopropyl]-1,2,4-oxadiazol-3-yl}-4-methylpiperidine-1-carboxamide]
12 | 450% | Cc1ccc(C2(C)CCN(C(=O)N[C@@H]3[C@@H](O[C@H]4CCN(CC5(C)CC5)C4)CCCC3(F)F)CC2)cc1 [Example 130, N-[(1R,6S)-2,2-difluoro-6-({(3S)-1-[(1-methylcyclopropyl)methyl]pyrrolidin-3-yl}oxy)cyclohexyl]-4-methyl-4-(4-methylphenyl)piperidine-1-carboxamide]
13 | 461% | CC(C)N(C)C1(C)CCN([C@H]2CCCC(F)(F)[C@@H]2NC(=O)N2CCC(C)(c3noc([C@@H]4C[C@@H]4F)n3)CC2)CC1 [Example 131, N-[(1R,6S)-2,2-difluoro-6-{4-methyl-4-[methyl(propan-2-yl)amino]piperidin-1-yl}cyclohexyl]-4-{5-[(1S,2S)-2-fluorocyclopropyl]-1,2,4-oxadiazol-3-yl}-4-methylpiperidine-1-carboxamide]
14 | 166% | CC(C)N1CCN(C(=O)[C@H]2CCCC(F)(F)[C@@H]2NC(=O)N2CCC(C)(c3noc([C@@H]4C[C@@H]4F)n3)CC2)CC1 [Example 132, N-{(1R,6S)-2,2-difluoro-6-[4-(propan-2-yl)piperazine-1-carbonyl]cyclohexyl}-4-{5-[(1S,2S)-2-fluorocyclopropyl]-1,2,4-oxadiazol-3-yl}-4-methylpiperidine-1-carboxamide]
15 | 506% | CC1(c2noc([C@@H]3C[C@@H]3F)n2)CCN(C(=O)N[C@@H]2[C@@H](O[C@H]3CCN(CC4(F)CC4)C3)CCCC2(F)F)CC1 [Example 133, N-[(1R,6S)-2,2-difluoro-6-({(3S)-1-[(1-fluorocyclopropyl)methyl]pyrrolidin-3-yl}oxy)cyclohexyl]-4-{5-[(1S,2S)-2-fluorocyclopropyl]-1,2,4-oxadiazol-3-yl}-4-methylpiperidine-1-carboxamide]
16 | 456% | CN(CC1(C)CC1)C1CCN([C@H]2CCCC(F)(F)[C@@H]2NC(=O)N2CCC(C)(c3noc([C@@H]4C[C@@H]4F)n3)CC2)CC1 [Example 134, N-[(1R,6S)-2,2-difluoro-6-(4-{methyl[(1-methylcyclopropyl)methyl]amino}piperidin-1-yl)cyclohexyl]-4-{5-[(1S,2S)-2-fluorocyclopropyl]-1,2,4-oxadiazol-3-yl}-4-methylpiperidine-1-carboxamide]
17 | 396% | CC1(c2noc([C@@H]3C[C@@H]3F)n2)CCN(C(=O)N[C@@H]2[C@@H](O[C@H]3CCN(CC4(C(F)(F)F)CC4)C3)CCCC2(F)F)CC1 [Example 135, N-[(1R,6S)-2,2-difluoro-6-{[(3S)-1-{[1-(trifluoromethyl)cyclopropyl]methyl}pyrrolidin-3-yl]oxy}cyclohexyl]-4-{5-[(1S,2S)-2-fluorocyclopropyl]-1,2,4-oxadiazol-3-yl}-4-methylpiperidine-1-carboxamide]
18 | 346% | CN(CC1(F)CC1)C1CCN([C@H]2CCCC(F)(F)[C@@H]2NC(=O)N2CCC(C)(c3noc([C@@H]4C[C@@H]4F)n3)CC2)CC1 [Example 136, N-[(1R,6S)-2,2-difluoro-6-(4-{[(1-fluorocyclopropyl)methyl](methyl)amino}piperidin-1-yl)cyclohexyl]-4-{5-[(1S,2S)-2-fluorocyclopropyl]-1,2,4-oxadiazol-3-yl}-4-methylpiperidine-1-carboxamide]
19 | 376% | CN(CC1CC1)[C@H]1CCN([C@H]2CCCC(F)(F)[C@@H]2NC(=O)N2CCC(C)(c3noc([C@@H]4C[C@@H]4F)n3)CC2)C1 [Example 137, N-[(1R,6S)-6-{(3S)-3-[(cyclopropylmethyl)(methyl)amino]pyrrolidin-1-yl}-2,2-difluorocyclohexyl]-4-{5-[(1S,2S)-2-fluorocyclopropyl]-1,2,4-oxadiazol-3-yl}-4-methylpiperidine-1-carboxamide]
